Reference: patent US4548922A, “Drug administration” (Beth Israel Hospital, priority 1983, dated 1985)

assay: k' factor value (hydrophobicity) by high-performance liquid column chromatography on octadecylsilane column; type: physicochemical; details: unconjugated steroid; 75% methanol in water, apparent pH 5.0, octadecylsilane column
Experimental: Preferably the steroid used in the invention is characterized in that the unconjugated derivative of the steroid is retained on a hydrophobic column for a length of time sufficient to produce a k' factor value of at least 7, the k' factor value being obtained by subjecting a monomeric solution of 1 mg/ml of such steroid derivative to high-performance liquid column chromatography at 3,000 psi, using a 250×4.6 mm column having octadecylsilane-coated 5 μm micro silica particles as the stationary phase and a mobile phase, delivered at 1.0 ml/min., consisting of 75% methanol in water, v/v, buffered with 0.005 M KH2 PO4 /H3 PO4 to give an apparent pH value, as measured using a glass electrode, of 5.0, the k' factor value being defined by k'=(tr -t0)/t0, where t0 is the retention time in the column of the solvent front and tr is the retention time in the column of the steroid derivative as measured by obtaining the elution profile of the steroid derivative by absorbance at 210 nm.
The structure of the steroid molecule affects its chemical properties and thus its functioning as a drug transporting molecule. We believe that all of the steroid molecules used in the invention facilitate transport by self-associating to form reversed micelles within the membrane across which the drug is being transported; these reversed micelles, it is believed, function as pores, allowing the drug to pass through. A measure of the ability of a given steroid molecule's ability to form such reversed micelles is the hydrophobicity of the unconjugated form of the molecule, a property which can be quantified using the k' factor value, which is computed by observing the steroid's retention time in a high-performance liquid chromatography (HPLC) column under the conditions described above. As mentioned above, the k' factor value of the unconjugated derivative of the steroid should be at least 7 for the steroid to be suitable in the therapeutic compositions of the invention.

Compared with CC(=O)O[C@@H]1[C@H]2[C@H](C)[C@H](O)CC[C@]2(C)[C@@H]2CC[C@H]3/C(=C(\CCC=C(C)C)C(=O)O)[C@@H](OC(C)=O)C[C@]3(C)[C@@]2(C)[C@H]1O [cephalosporin P1], CC(=O)O[C@H]1C[C@@]2(C)[C@@H](CC[C@H]3[C@@]4(C)C=CC(=O)[C@@H](C)[C@@H]4[C@H](OC(C)=O)C(=O)[C@@]32C)/C1=C(\CCC=C(C)C)C(=O)O [helvolic acid] is lower in “k' factor value”: 9.5 for the first, 4.7 for the second.

With C[C@H](CCC(=O)O)[C@H]1CC[C@H]2[C@@H]3[C@@H](O)C[C@@H]4C[C@H](O)CC[C@]4(C)[C@H]3CC[C@]12C [ursodeoxycholic acid] the “k' factor value” was 4.7.
